According to patent US20240173419A1, “CDK2 DEGRADERS AND USES THEREOF” (Kymera Therapeutics, Inc., priority 2022, published 2024):

Target: T1, CDK2 (Homo sapiens, UniProt P24941)
T1 construct: endogenous in cells; host or cells: MKN1 cells
Experiment: CDK2 degradation in MKN1 cells (AlphaLISA)
Format: cell-based
Design: key to CDK2 degradation 14 h: Mean external-Abs DC50 (nM): A (<100 nM); B (≥100-500 nM); C (>500-1000 nM); D (>1000 nM); E (not achieved)
Settings: 14 h incubation; for DC50: read-out: CDK2 degradation 14 h: Mean external-Abs DC50
How it was run: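 MKN1 cells (2e4/well) treated 14 h at 37° C with 11-point 1:5 dilutions (0.001 nM-10 μM, 0.1% DMSO). CDK2 in lysates quantified by AlphaLISA, no-cell background subtracted; DC50 from four-parameter logistic fit.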

Row | SMILES | CDK2 degradation 14 h: Average Dmax % | DC50 [nM] | CDK2 degradation 14 h: Mean external-Abs DC50 (nM)
1 | Cc1cc(S(=O)(=O)N2CCC(CN3CCN(Cc4cccc5c4n(C)c(=O)n5C4CCC(=O)NC4=O)CC3)CC2)ccc1Nc1ncc2ccc(=O)n(C3CCCC3)c2n1 (stereo not drawn) [I-452] | B (B (>50% -75%)) | < 100 | –
2 | Cc1cc(S(=O)(=O)N2CCC(OCCCc3ccc4c(c3)n(C)c(=O)n4C3CCC(=O)NC3=O)CC2)ccc1Nc1ncc2ccc(=O)n(C3CCCC3)c2n1 (stereo not drawn) [I-453] | D (D (<25%)) | > 1000 | –
3 | Cc1cc(S(=O)(=O)N2CCC(OCCCc3cccc4c3n(C)c(=O)n4C3CCC(=O)NC3=O)CC2)ccc1Nc1ncc2ccc(=O)n(C3CCCC3)c2n1 (stereo not drawn) [I-454] | C (C (>25% -50%)) | > 1000 | –
4 | Cc1cc(S(=O)(=O)N2CCC(OCC#Cc3cccc4c3n(C)c(=O)n4C3CCC(=O)NC3=O)CC2)ccc1Nc1ncc2cc(Cl)c(=O)n(C3CCCC3)c2n1 (stereo not drawn) [I-455] | D (D (<25%)) | > 1000 | –
5 | Cc1cc(S(=O)(=O)N2CCC3(CCN(Cc4cccc5c4n(C)c(=O)n5C4CCC(=O)NC4=O)CC3)CC2)ccc1Nc1ncc2ccc(=O)n(C3CCCC3)c2n1 (stereo not drawn) [I-458] | B (B (>50% -75%)) | 100 to 500 | –
6 | Cc1cc(S(=O)(=O)N2CCN(CCCCOCCCc3ccc4c(c3)n(C)c(=O)n4C3CCC(=O)NC3=O)CC2)ccc1Nc1ncc2ccc(=O)n(C3CCCC3)c2n1 (stereo not drawn) [I-459] | B (B (>50% -75%)) | 100 to 500 | –
7 | Cc1cc(S(=O)(=O)NCCOCCOCCOCCOCCCc2ccc3c(c2)n(C)c(=O)n3C2CCC(=O)NC2=O)ccc1Nc1ncc2c(C)c(Br)c(=O)n(C3CCCC3)c2n1 (stereo not drawn) [I-460] | B (B (>50% -75%)) | < 100 | –
8 | Cc1cc(S(=O)(=O)NCCOCCOCCOCCCc2ccc3c(c2)n(C)c(=O)n3C2CCC(=O)NC2=O)ccc1Nc1ncc2cc(Cl)c(=O)n(C3CCCC3)c2n1 (stereo not drawn) [I-461] | A (A (>75% o)) | < 100 | –
9 | Cc1cc(S(=O)(=O)N2CC(OCCN3CCC(c4ccc5c(c4)n(C)c(=O)n5C4CCC(=O)NC4=O)CC3)C2)ccc1Nc1ncc2ccc(=O)n(C3CCCC3)c2n1 (stereo not drawn) [I-462] | A (A (>75% o)) | < 100 | –
10 | Cc1cc(S(=O)(=O)N2CC3(CC(OCCN4CCC(c5ccc6c(c5)n(C)c(=O)n6C5CCC(=O)NC5=O)CC4)C3)C2)ccc1Nc1ncc2ccc(=O)n(C3CCCC3)c2n1 (stereo not drawn) [I-463] | C (C (>25% -50%)) | – | E
11 | Cc1cc(S(=O)(=O)N2CCC(N3CCN(CCCc4ccc5c(c4)n(C)c(=O)n5C4CCC(=O)NC4=O)CC3)CC2)ccc1Nc1ncc2ccc(=O)n(C3CCCC3)c2n1 (stereo not drawn) [I-464] | B (B (>50% -75%)) | < 100 | –
12 | Cc1cc(S(=O)(=O)NCCOCCOCCCc2ccc3c(c2)n(C)c(=O)n3C2CCC(=O)NC2=O)ccc1Nc1ncc2c(C)cc(=O)n(C3CCCC3)c2n1 (stereo not drawn) [I-466] | D (D (<25%)) | > 1000 | –
13 | Cc1cc(S(=O)(=O)NCCOCCOCCOCCOCCCc2ccc3c(c2)n(C)c(=O)n3C2CCC(=O)NC2=O)ccc1Nc1ncc2c(C)cc(=O)n(C3CCCC3)c2n1 (stereo not drawn) [I-467] | C (C (>25% -50%)) | – | E
14 | Cc1cc(S(=O)(=O)NCCOC2CCC(CN3CCC(c4ccc5c(c4)n(C)c(=O)n5C4CCC(=O)NC4=O)CC3)CC2)ccc1Nc1ncc2ccc(=O)n(C3CCCC3)c2n1 (stereo not drawn) [I-468] | A (A (>75% o)) | < 100 | –
15 | Cc1cc(S(=O)(=O)NCCOC2CCC(N(C)CC3CCN(c4ccc5c(c4)n(C)c(=O)n5C4CCC(=O)NC4=O)CC3)CC2)ccc1Nc1ncc2ccc(=O)n(C3CCCC3)c2n1 (stereo not drawn) [I-469] | A (A (>75% o)) | < 100 | –
16 | Cc1cc(S(=O)(=O)NCCOC2CCC3(CC2)CCN(CCCc2ccc4c(c2)n(C)c(=O)n4C2CCC(=O)NC2=O)CC3)ccc1Nc1ncc2ccc(=O)n(C3CCCC3)c2n1 (stereo not drawn) [I-470] | A (A (>75% o)) | < 100 | –
17 | Cc1cc(S(=O)(=O)NCCOC2CCC3(CC2)CCN(CC#Cc2ccc4c(c2)n(C)c(=O)n4C2CCC(=O)NC2=O)CC3)ccc1Nc1ncc2ccc(=O)n(C3CCCC3)c2n1 (stereo not drawn) [I-471] | A (A (>75% o)) | < 100 | –
18 | Cc1cc(S(=O)(=O)NCCOC2CC3(C2)CN(CCCc2ccc4c(c2)n(C)c(=O)n4C2CCC(=O)NC2=O)C3)ccc1Nc1ncc2ccc(=O)n(C3CCCC3)c2n1 (stereo not drawn) [I-472] | A (A (>75% o)) | < 100 | –
19 | Cc1cc(S(=O)(=O)NCCOC2CC3(C2)CN(CC#Cc2ccc4c(c2)n(C)c(=O)n4C2CCC(=O)NC2=O)C3)ccc1Nc1ncc2ccc(=O)n(C3CCCC3)c2n1 (stereo not drawn) [I-473] | A (A (>75% o)) | < 100 | –
20 | Cc1cc(S(=O)(=O)NCCOCCOCCOCCCc2ccc3c(c2)n(C)c(=O)n3C2CCC(=O)NC2=O)ccc1Nc1ncc2ccc(=O)n(C3CCCC3)c2n1 (stereo not drawn) [I-474] | A (A (>75% o)) | < 100 | –
21 | Cc1cc(S(=O)(=O)NCCOCCOCCCc2ccc3c(c2)n(C)c(=O)n3C2CCC(=O)NC2=O)ccc1Nc1ncc2ccc(=O)n(C3CCCC3)c2n1 (stereo not drawn) [I-475] | A (A (>75% o)) | < 100 | –
22 | Cc1cc(S(=O)(=O)NCCOCCOCCOCCOCCNc2cccc3c2C(=O)N(C2CCC(=O)NC2=O)C3=O)ccc1Nc1ncc2cc(C(F)F)c(=O)n(C3CCCC3(C)O)c2n1 (stereo not drawn) [I-483] | A (A (>75% o)) | < 100 | –
23 | Cc1cc(S(=O)(=O)NCCOCCOCCCc2ccc3c(c2)n(C)c(=O)n3C2CCC(=O)NC2=O)ccc1Nc1ncc2cc(C(F)F)c(=O)n(C3CCCC3(C)O)c2n1 (stereo not drawn) [I-484] | A (A (>75% o)) | < 100 | –
24 | Cc1cc(S(=O)(=O)NCCOCCOCCOCCOCCCc2ccc3c(c2)n(C)c(=O)n3C2CCC(=O)NC2=O)ccc1Nc1ncc2cc(C(F)F)c(=O)n(C3CCCC3(C)O)c2n1 (stereo not drawn) [I-486] | A (A (>75% o)) | < 100 | –

The next lines start with the values.

Row | CDK2 degradation 14 h: Average Dmax % | DC50 [nM] | CDK2 degradation 14 h: Mean external-Abs DC50 (nM) | SMILES
25 | A (A (>75% o)) | < 100 | – | Cc1cc(S(=O)(=O)NCCOCCOCCCc2cccc3c2n(C)c(=O)n3C2CCC(=O)NC2=O)ccc1Nc1ncc2cc(C(F)F)c(=O)n([C@@H]3CCC[C@]3(C)O)c2n1 (stereo partly drawn) [I-487]
26 | A (A (>75% o)) | < 100 | – | Cc1cc(NCCOCCOCCOCCOCCCc2cccc3c2n(C)c(=O)n3C2CCC(=O)NC2=O)ccc1Nc1ncc2cc(C(F)F)c(=O)n([C@@H]3CCC[C@]3(C)O)c2n1 (stereo partly drawn) [I-490]
27 | D (D (<25%)) | > 1000 | – | C[C@]1(O)CCC[C@H]1n1c(=O)c(C(F)F)cc2cnc(NC3CCN(C(=O)COCCOCCNc4cccc5c4C(=O)N(C4CCC(=O)NC4=O)C5=O)CC3)nc21 (stereo partly drawn) [I-491]
28 | D (D (<25%)) | > 1000 | – | C[C@]1(O)CCC[C@H]1n1c(=O)c(C(F)F)cc2cnc(NC3CCN(C(=O)COCCOCCOCCOCCNc4cccc5c4C(=O)N(C4CCC(=O)NC4=O)C5=O)CC3)nc21 (stereo partly drawn) [I-494]
29 | D (D (<25%)) | > 1000 | – | Cn1c(=O)n(C2CCC(=O)NC2=O)c2cccc(CCCOCCOCC(=O)N3CCC(Nc4ncc5cc(C(F)F)c(=O)n([C@@H]6CCC[C@]6(C)O)c5n4)CC3)c21 (stereo partly drawn) [I-499]
30 | D (D (<25%)) | > 1000 | – | Cn1c(=O)n(C2CCC(=O)NC2=O)c2cccc(CCCOCCOCCOCCOCC(=O)N3CCC(Nc4ncc5cc(C(F)F)c(=O)n([C@@H]6CCC[C@]6(C)O)c5n4)CC3)c21 (stereo partly drawn) [I-502]
31 | A (A (>75% o)) | < 100 | – | Cc1cc(S(=O)(=O)C2CC3(CCN(CC4CCN(c5ccc6c(c5F)n(C)c(=O)n6C5CCC(=O)NC5=O)CC4)CC3)C2)ccc1Nc1ncc(C(F)(F)F)c(N2CCC(C(C)(C)O)C2)n1 (stereo not drawn) [I-505]
32 | B (B (>50% -75%)) | < 100 | – | Cc1cc(S(=O)(=O)C2CC3(CCN(CC4CCN(c5ccc6c(c5F)n(C)c(=O)n6C5CCC(=O)NC5=O)CC4)CC3)C2)ccc1Nc1ncc(C(F)(F)F)c(N2CCCC(O)(C(F)F)C2)n1 (stereo not drawn) [I-507]
33 | D (D (<25%)) | > 1000 | – | CCc1cnc(Nc2ccc(S(=O)(=O)C3CC4(CCN(CC5CCN(c6cccc7c6n(C)c(=O)n7C6CCC(=O)NC6=O)CC5)CC4)C3)cc2C)nc1C1CCC(C)(O)CC1 (stereo not drawn) [I-514]
34 | A (A (>75% o)) | < 100 | – | Cc1cc(S(=O)(=O)NCCOC2CCC(CN3CCC(c4ccc5c(c4F)n(C)c(=O)n5C4CCC(=O)NC4=O)CC3)CC2)ccc1Nc1ncc(C(F)(F)F)c(C2CCC(C)(O)CC2)n1 (stereo not drawn) [I-515]
35 | B (B (>50% -75%)) | > 1000 | – | Cc1cc(S(=O)(=O)C2CC3(CCN(CC4CCN(c5ccc6c(c5F)n(C)c(=O)n6C5CCC(=O)NC5=O)CC4)CC3)C2)ccc1Nc1ncc(C(F)(F)F)c(C2CCC(O)(C(C)C)CC2)n1 (stereo not drawn) [I-516]
36 | A (A (>75% o)) | < 100 | – | Cc1cc(S(=O)(=O)C2CC3(CCN(CC4CCN(c5ccc6c(c5F)n(C)c(=O)n6C5CCC(=O)NC5=O)CC4)CC3)C2)ccc1Nc1ncc(C(F)(F)F)c(N2CCCC(C)(O)C2)n1 (stereo not drawn) [I-518]
37 | B (B (>50% -75%)) | < 100 | – | Cc1cc(S(=O)(=O)NCCOC2CCC(CN3CCC(c4ccc5c(c4)n(C)c(=O)n5C4CCC(=O)NC4=O)CC3)CC2)ccc1Nc1ncc(C(F)(F)F)c(C2CCC(C)(O)CC2)n1 (stereo not drawn) [I-519]
38 | A (A (>75% o)) | < 100 | – | Cc1cc(S(=O)(=O)C2CC3(CCN(CC4CCN(c5ccc6c(c5F)n(C)c(=O)n6C5CCC(=O)NC5=O)CC4)CC3)C2)ccc1Nc1ncc2c(n1)N(C1CCCC1)C(=O)C2(C)C (stereo not drawn) [I-524]
39 | A (A (>75% o)) | < 100 | – | Cc1cc(S(=O)(=O)C2CC3(CCN(CC4CCN(c5ccc6c(c5F)n(C)c(=O)n6C5CCC(=O)NC5=O)CC4)CC3)C2)ccc1Nc1ncc2c(n1)N(C1CCCC1)C(=O)C21CC1 (stereo not drawn) [I-529]
